Source: patent US20200352934A1, “LOW-TEMPERATURE STABLE OPIOID ANTAGONIST SOLUTIONS” (priority 2017, published 2020)
Where two headings read alike, the source gives them in different places.

Conditions: storage at 4° C.
[1] = per 100 mL: EDTA-Na2 0 mg, PG 5% w/v
[2] = per 100 mL: EDTA-Na2 0 mg, PG 10% w/v
[3] = per 100 mL: EDTA-Na2 0 mg, PG 20% w/v
[4] = per 100 mL: EDTA-Na2 100 mg, PG 5% w/v
[5] = per 100 mL: EDTA-Na2 100 mg, PG 10% w/v
[6] = per 100 mL: EDTA-Na2 100 mg, PG 20% w/v

For C=CCN1CC[C@]23c4c5ccc(O)c4O[C@H]2C(=O)CC[C@@]3(O)[C@H]1C5 [Naloxone], the “Observed naloxone precipitation 24 days” value [1] was “No”, the “Observed naloxone precipitation 24 days” value [2] was “No” and the “Observed naloxone precipitation 24 days” value [3] was “No”. The “Observed naloxone precipitation 24 days” value [4] was “No”, the “Observed naloxone precipitation 24 days” value [5] was “No” and the “Observed naloxone precipitation 24 days” value [6] was “No and Slight”. The “Observed naloxone precipitation 35 days” value [1] was “No”, the “Observed naloxone precipitation 35 days” value [2] was “No” and the “Observed naloxone precipitation 35 days” value [3] was “No”. For the same compound, the “Observed naloxone precipitation 35 days” value [4] was “No”, the “Observed naloxone precipitation 35 days” value [5] was “No” and the “Observed naloxone precipitation 35 days” value [6] was “No and Yes”. The “Observed naloxone precipitation 53 days” value [1] was “No”, the “Observed naloxone precipitation 53 days” value [2] was “No” and the “Observed naloxone precipitation 53 days” value [3] was “No”. The “Observed naloxone precipitation 53 days” value [4] was “No”, the “Observed naloxone precipitation 53 days” value [5] was “No and Slight” and the “Observed naloxone precipitation 53 days” value [6] was “No and Yes”.
